Experimental findings from patent US7041687B2, “Indazole compounds useful as protein kinase inhibitors” (Vertex Pharmaceuticals Incorporated, priority 2002, dated 2006) are described below.

Common to all, as to format: biochemical
The target of one assay is AKT-3 (Homo sapiens, UniProt Q9Y243). The assay can be described thus: AKT-3 inhibition assay (standard coupled enzyme assay). To be noted: 170 μM ATP, 200 μM peptide, 45 nM AKT, 30° C.
The target of a further assay is PKA (Homo sapiens, UniProt P17612). The assay can be described thus: PKA inhibition assay (standard coupled enzyme assay). Particulars: 50 μM ATP, 80 μM Kemptide, 18 nM PKA, 30° C. The method, then:
Compounds were screened for their ability to inhibit PKA using a standard coupled enzyme assay (Fox et al., Protein Sci., (1998) 7, 2249). Assays were carried out in a mixture of 100 mM HEPES 7.5, 10 mM MgCl2, 25 mM NaCl, 1 mM DTT and 3% DMSO. Final substrate concentrations in the assay were 50 μM ATP (Sigma Chemicals) and 80 μM peptide (Kemptide, American Peptide, Sunnyvale, Calif.). Assays were carried out at 30° C. and 18 nM PKA. Final concentrations of the components of the coupled enzyme system were 2.5 mM phosphoenolpyruvate, 300 μM NADH, 30 μg/ml pyruvate kinase and 10 μg/ml lactate dehydrogenase.
An assay stock buffer solution was prepared containing all of the reagents listed above, with the exception of ATP, and the test compound of interest. 55 μl of the stock solution was placed in a 96 well plate followed by addition of 2 μl of DMSO stock containing serial dilutions of the test compound (typically starting from a final concentration of 5 μM). The plate was preincubated for 10 minutes at 30° C. and the reaction initiated by addition of 5 μl of ATP (final concentration 50 μM). Initial reaction rates were determined with a Molecular Devices SpectraMax Plus plate reader over a 15 minute time course. IC50 and Ki data were calculated from non-linear regression analysis using the Prism software package (GraphPad Prism version 3.0a for Macintosh, GraphPad Software, San Diego Calif., USA).

In a further assay the target is T1, PDK-1 (Homo sapiens, UniProt O15530).
T1 sequence (O15530 1-556): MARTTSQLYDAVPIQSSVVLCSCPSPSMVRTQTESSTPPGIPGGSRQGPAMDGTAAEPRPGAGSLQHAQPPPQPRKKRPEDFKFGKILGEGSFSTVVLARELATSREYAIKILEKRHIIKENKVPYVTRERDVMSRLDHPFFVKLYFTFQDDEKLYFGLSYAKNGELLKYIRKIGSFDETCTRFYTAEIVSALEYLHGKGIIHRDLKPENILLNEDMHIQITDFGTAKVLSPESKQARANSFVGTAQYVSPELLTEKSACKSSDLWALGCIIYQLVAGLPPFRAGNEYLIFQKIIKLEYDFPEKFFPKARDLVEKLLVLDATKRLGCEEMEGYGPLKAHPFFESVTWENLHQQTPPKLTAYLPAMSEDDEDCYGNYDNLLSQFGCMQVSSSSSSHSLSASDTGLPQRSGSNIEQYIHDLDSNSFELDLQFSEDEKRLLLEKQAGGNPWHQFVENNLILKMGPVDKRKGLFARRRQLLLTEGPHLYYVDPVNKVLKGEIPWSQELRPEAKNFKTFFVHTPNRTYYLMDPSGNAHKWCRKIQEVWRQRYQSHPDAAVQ
In words: PDK-1 inhibition assay (radioactive-phosphate incorporation). To be noted: 40 μM ATP, 65 μM PDKtide, 25 nM PDK-1, 30° C.

The term Ki denotes a measure of affinity in units of concentration, obtained from inhibition or displacement.

Several values for one entry are separate records, joined by “and”; a condition that tells them apart may be missing. Identical values can stand only once.

AKT-3, sequence (Q9Y243 whole entry): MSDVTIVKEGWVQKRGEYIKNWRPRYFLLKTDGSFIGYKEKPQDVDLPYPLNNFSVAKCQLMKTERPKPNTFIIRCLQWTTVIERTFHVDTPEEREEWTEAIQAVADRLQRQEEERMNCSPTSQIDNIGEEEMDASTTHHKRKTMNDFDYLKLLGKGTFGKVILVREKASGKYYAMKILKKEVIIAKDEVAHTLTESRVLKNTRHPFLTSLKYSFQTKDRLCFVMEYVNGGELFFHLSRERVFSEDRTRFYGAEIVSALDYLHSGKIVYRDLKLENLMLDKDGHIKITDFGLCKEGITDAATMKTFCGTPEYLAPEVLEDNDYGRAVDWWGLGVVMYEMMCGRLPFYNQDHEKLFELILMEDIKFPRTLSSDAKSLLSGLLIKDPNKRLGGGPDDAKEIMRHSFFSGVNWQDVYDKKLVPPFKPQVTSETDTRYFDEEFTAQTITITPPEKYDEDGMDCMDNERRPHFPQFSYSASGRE
Procedure for PDK-1: Compounds were screened for their ability to inhibit PDK-1 using a radioactive-phosphate incorporation assay (Pitt and Lee, J. Biomol. Screen., (1996) 1, 47). Assays were carried out in a mixture of 100 mM HEPES (pH 7.5), 10 mM MgCl2, 25 mM NaCl, 2 mM DTT. Final substrate concentrations in the assay were 40 μM ATP (Sigma Chemicals) and 65 μM peptide (PDKtide, Upstate, Lake Placid, N.Y.). Assays were carried out at 30° C. and 25 nM PDK-1 in the presence of ˜27.5 nCi/μL of [γ-^32P]ATP (Amersham Pharmacia Biotech, Amersham, UK). An assay stock buffer solution was prepared containing all of the reagents listed above, with the exception of ATP, and the test compound of interest. 15 μl of the stock solution was placed in a 96 well plate followed by addition of 1 μl of 0.5 mM DMSO stock containing the test compound (final compound concentration 25 μM, final DMSO concentration 5%). The plate was preincubated for about 10 minutes at 30° C. and the reaction initiated by addition of 4 μl ATP (final concentration 40 μM).
The reaction was stopped after 10 minutes by the addition of 100 μL 100 mM phosphoric acid, 0.01% Tween-20. A phosphocellulose 96 well plate (Millipore, Cat no. MAPHNOB50) was pretreated with 100 μL 100 mM phosphoric acid, 0.01% Tween-20 prior to the addition of the reaction mixture (100 μL). The spots were left to soak for at least 5 minutes, prior to wash steps (4×200 μL 100 mM phosphoric acid, 0.01% Tween-20). Alter drying, 20 μL Optiphase ‘SuperMix’ liquid scintillation cocktail (Perkin Elmer) was added to the well prior to scintillation counting (1450 Microbeta Liquid Scintillation Counter, Wallac).

Regarding `NC(C(=O)Nc1ccc2[nH]ncc2c1)c1cccc(Cl)c1` (stereo not shown) [Compound I-51], the Ki was 1000 to 10000 nM at AKT-3 and less than 1000 nM on PKA.
For `NC(C(=O)Nc1ccc2[nH]ncc2c1)c1cccc(Br)c1` (stereo not shown) [Compound I-52] the same measures were 10000 to 20000 nM and less than 1000 nM.
Turning to `NC(C(=O)Nc1ccc2[nH]ncc2c1)c1c[nH]c2ccccc12` (stereo not shown) [Compound I-56], the figures for the Ki at AKT-3 and on PKA were 1000 to 10000 nM and less than 1000 nM, respectively.
On to `O=C(Nc1ccc2[nH]ncc2c1)C(O)c1ccc(Cl)cc1` (stereo not shown) [Compound I-35], for which the Ki at AKT-3 is 1000 to 10000 nM; at PKA it was less than 1000 nM.
For the molecule `NCC(C(=O)Nc1ccc2[nH]ncc2c1)c1cccc(Cl)c1` (stereo not shown) [Compound I-97], the inhibition constant (Ki) at AKT-3 and at PKA was less than 1000 nM each time.
On to `Cc1n[nH]c2ccc(NC(=O)C(CCN)c3cccc(Cl)c3F)cc12` (stereo not shown) [Compound I-116], for which the Ki at AKT-3 and at PKA was less than 1000 nM in each case.
Turning to `N[C@@H](C(=O)Nc1ccc2[nH]ncc2c1)c1ccccc1` [Compound I-48], the Ki is 1000 to 10000 nM on AKT-3 and less than 1000 nM on PKA.
With `CNCCCNC(C(=O)Nc1ccc2[nH]ncc2c1)c1cccc(Cl)c1` (stereo not shown) [Compound I-67], the Ki on AKT-3 and at PKA was less than 1000 nM each time.
For `Cc1n[nH]c2ccc(NC(=O)C(CN)c3ccc(Cl)s3)cc12` (stereo not shown) [Compound I-245], the Ki on AKT-3 and at PKA was less than 1000 nM in each case.
For the molecule `NC[C@H](C(=O)Nc1ccc2[nH]ncc2c1)c1ccc(Cl)c(Cl)c1` [Compound I-243], the Ki at AKT-3 and on PKA was less than 1000 nM each time.
As to `O=C(Nc1ccc2[nH]nc(Cl)c2c1)[C@H](O)c1cccc(Cl)c1` [Compound I-78], the Ki on AKT-3 was 1000 to 10000 nM; at PKA, less than 1000 nM.
For `Cc1n[nH]c2ccc(NC(=O)[C@H](O)c3cccc(Cl)c3)cc12` [Compound I-76] the same measures were 1000 to 10000 nM and less than 1000 nM.
Consider `COC(=O)c1cccc(-c2n[nH]c3ccc(NC(=O)C(CCN)c4ccccc4)cc23)c1` (stereo not shown) [Compound I-244], for which, on PKA, the Ki is less than 1000 nM.
On the same count and under the same terms, for `O=C(Nc1ccc2[nH]ncc2c1)C(CO)c1ccccc1` (stereo not shown) [Compound I-84] the value was 1000 to 5000 nM.
`NCCC(C(=O)Nc1ccc2[nH]ncc2c1)c1cc(C(F)(F)F)cc(Cl)n1` (stereo not shown) [Compound I-149]: the Ki on AKT-3 and on PKA was less than 1000 nM in each case.
Regarding `O=C(Nc1ccc2[nH]ncc2c1)C(O)c1cc(F)cc(F)c1` (stereo not shown) [Compound I-43], the Ki at AKT-3 is 1000 to 10000 nM; on PKA, less than 1000 nM.
Consider `C#Cc1cccc(C(=O)Nc2n[nH]c3ccc(NC(=O)C(CCN)c4ccc(Cl)c(Cl)c4)cc23)c1` (stereo not shown) [Compound I-205], for which the inhibition constant (Ki) on AKT-3 and at PKA was less than 1000 nM throughout.
As for `NCCC(C(=O)Nc1cc(Cl)c2[nH]ncc2c1)c1ccc(Cl)c(Cl)c1` (stereo not shown) [Compound I-143], the Ki at AKT-3 and at PKA was less than 1000 nM in each case.
`N#Cc1cccc(Nc2n[nH]c3ccc(NC(=O)[C@@H](CCN)c4c(F)ccc(Cl)c4F)cc23)c1` [Compound I-1048]: the Ki on PDK-1 was less than 1000 nM; on AKT-3, 1000 to 10000 nM.
On to `CCNc1cccc(C(=O)Nc2n[nH]c3ccc(NC(=O)C(CCN)c4ccc(Cl)c(Cl)c4)cc23)c1` (stereo not shown) [Compound I-210], for which the Ki on AKT-3 and at PKA was less than 1000 nM each time.
Regarding `NCCC(C(=O)Nc1ccc2[nH]nc(-c3cccc(C(=O)O)c3)c2c1)c1ccccc1` (stereo not shown) [Compound I-246], the Ki at PKA was less than 1000 nM.
For the molecule `O=C(Nc1ccc2[nH]ncc2c1)C(CO)c1ccc(F)c(Cl)c1` (stereo not shown) [Compound I-85], the Ki on PKA is less than 1000 nM.
`O=C(Cc1cccc(Cl)c1F)Nc1ccc2[nH]ncc2c1` [Compound I-93] had a Ki at PKA of less than 1000 nM.
For the molecule `NCCC(C(=O)Nc1ccc2[nH]nc(NS(=O)(=O)c3ccccc3)c2c1)c1ccc(Cl)c(Cl)c1` (stereo not shown) [Compound I-190], the figures for the Ki on PDK-1 and at AKT-3 were greater than 3000 nM and 10000 to 20000 nM, respectively.
As to `N#Cc1cccc(Nc2n[nH]c3ccc(NC(=O)[C@@H](CCN)c4ccccc4)cc23)c1` [Compound I-1055], the Ki on PDK-1 lay within 1000 to 3000 nM; at AKT-3, 1000 to 10000 nM.
In turn, `NCCNC(C(=O)Nc1ccc2[nH]ncc2c1)c1ccc(Cl)c(Cl)c1` (stereo not shown) [Compound I-69] came in with a Ki at PKA of less than 1000 nM.
For `NCCC(C(=O)Nc1ccc2[nH]nc(NC(=O)c3ccc4c(c3)OCO4)c2c1)c1ccc(Cl)c(Cl)c1` (stereo not shown) [Compound I-171], the Ki on PDK-1 and on AKT-3 was less than 1000 nM each time.
On to `O=C(CCCc1ccccc1)Nc1ccc2[nH]ncc2c1` [Compound I-92], for which the Ki at PKA was in the range of 1000 to 5000 nM.
As to `NCCC(C(=O)Nc1ccc2[nH]nc(NC(=O)c3ccc4ccccc4c3)c2c1)c1ccc(Cl)c(Cl)c1` (stereo not shown) [Compound I-170], the Ki at PDK-1 was 1000 to 3000 nM; at AKT-3, less than 1000 nM.
The corresponding values for `NCCC(C(=O)Nc1ccc2[nH]nc(-c3cccc(Cl)c3)c2c1)c1ccc(Cl)c(Cl)c1` (stereo not shown) [Compound I-253] are less than 1000 nM and less than 1000 nM.
For `NCCC(C(=O)Nc1ccc2[nH]nc(NS(=O)(=O)c3cccc(Cl)c3)c2c1)c1ccc(Cl)c(Cl)c1` (stereo not shown) [Compound I-191], the results for the Ki on PDK-1 and on AKT-3 were greater than 3000 nM and 1000 to 10000 nM, respectively.
In turn, `O=C(Cc1cccc(Cl)c1)Nc1ccc2[nH]ncc2c1` [Compound I-6, 2-(3-Chloro-phenyl)-N-(1H-indazol-5-yl)-acetamide] yielded a Ki on PKA of 1000 to 5000 nM.
For the molecule `NCCC(C(=O)Nc1ccc2[nH]nc(C(=O)Nc3ccccc3)c2c1)c1ccccc1` (stereo not shown) [Compound I-1040], the Ki on PDK-1 lay within 1000 to 3000 nM; at AKT-3 it was 10000 to 20000 nM.
As for `NCCC(C(=O)Nc1ccc2[nH]nc(NC(=O)Nc3ccccc3)c2c1)c1ccc(Cl)c(Cl)c1` (stereo not shown) [Compound I-176], the figures for the Ki at PDK-1 and at AKT-3 were 1000 to 3000 nM and 1000 to 10000 nM, respectively.
`O=C(Cc1c[nH]c2ccccc12)Nc1ccc2[nH]ncc2c1` [Compound I-24] displayed a Ki at PKA of 1000 to 5000 nM.
`NCC[C@@H](C(=O)Nc1ccc2[nH]nc(-c3ccccc3)c2c1)c1c(F)ccc(Cl)c1F` [Compound I-1056]: the Ki was less than 1000 nM on PDK-1 and 1000 to 10000 nM at AKT-3.
Take `COc1ccccc1C(CCN)C(=O)Nc1ccc2[nH]ncc2c1` (stereo not shown) [Compound I-1005]: the results for the Ki on PDK-1 and on AKT-3 were 1000 to 3000 nM and less than 1000 nM, respectively.
For `Cc1cccc(C(CCN)C(=O)Nc2ccc3[nH]ncc3c2)c1` (stereo not shown) [Compound I-112] the same measures were 1000 to 3000 nM and less than 1000 nM.
In the case of `CC(=O)Nc1cccc(C(CCN)C(=O)Nc2ccc3[nH]ncc3c2)c1` (stereo not shown) [Compound I-111], the Ki at PDK-1 is greater than 3000 nM; at AKT-3 it was 1000 to 10000 nM.
For `NCCC(C(=O)Nc1ccc2[nH]ncc2c1)c1cccc(OCc2ccccc2)c1` (stereo not shown) [Compound I-114], the Ki at PDK-1 is greater than 3000 nM; at AKT-3, 1000 to 10000 nM.
As to `NCC[C@@H](C(=O)Nc1ccc2[nH]nc(-c3ccccc3)c2c1)c1ccccc1` [Compound I-1052], the Ki at PDK-1 was less than 1000 nM; at AKT-3, 1000 to 10000 nM.
With `N#Cc1cccc(Nc2n[nH]c3ccc(NC(=O)[C@H](CCN)c4ccccc4)cc23)c1` [Compound I-1054], the Ki at PDK-1 was 1000 to 3000 nM and > 3000 nM; at AKT-3 it was less than 1000 nM.
Take `Cc1cccc(-c2n[nH]c3ccc(NC(=O)C(CCN)c4ccc(Cl)c(Cl)c4)cc23)c1` (stereo not shown) [Compound I-251]: the Ki at PDK-1 and at AKT-3 was less than 1000 nM in each case.
With `NCC[C@@H](C(=O)Nc1ccc2[nH]nc(NC(=O)c3cccs3)c2c1)c1c(F)ccc(Cl)c1F` [Compound I-1045], the Ki on PDK-1 and at AKT-3 was less than 1000 nM throughout.
Regarding `NCCC(C(=O)Nc1ccc2[nH]nc(Nc3cccc(F)c3)c2c1)c1ccc(Cl)c(Cl)c1` (stereo not shown) [Compound I-213], the results for the Ki on PDK-1 and at AKT-3 were 1000 to 3000 nM and less than 1000 nM, respectively.
Regarding `N#Cc1cccc(Nc2n[nH]c3ccc(NC(=O)[C@H](CCN)c4c(F)ccc(Cl)c4F)cc23)c1` [Compound I-1047], the Ki on PDK-1 is greater than 3000 nM; at AKT-3 it was less than 1000 nM.
Take `NCCC(SCc1ccccc1)C(=O)Nc1ccc2[nH]ncc2c1` (stereo not shown) [Compound I-154]: the figures for the Ki at PDK-1 and on AKT-3 were greater than 3000 nM and 1000 to 10000 nM, respectively.
